Patent US20100173983A1, “METHOD FOR INDUCING AUTOPHAGY” (priority 2007, published 2010)

Key:
Type in all cases: cell-based, Human
[1] = test system: CP70 ovarian cancer cells; assay: DNA fragmentation, PI/Hoechst FACS analysis; details: 10 μM for 24 hr; 1.4% in the absence of Cpd 1
Procedure: FIG. 7. Cpd 1 induces DNA degradation in CP70 cells. A, No treatment control. B, Cpd 1-treated cells. CP70 ovarian cancer cells were incubated with 10 μg/ml Cpd 1 for […] and fixed. Cells were co-stained with propidium iodide and Hoechst A and incidence of PI labelled cells indicative of DNA degradation in quandrant 2 was assessed by FACS analysis.
The inventors then determined whether treatment with Cpd 1 induced DNA fragmentation. Ovarian cancer cells were treated with Cpd 1 (10 μM) for 24 hr and gently trypsinised. Trypsinized cells were combined with non-adherent cells, rinsed once in medium containing serum and then resuspended at a concentration of 10^7 cells/ml in PBS. Cells were then fixed by adding 0.5 ml of cell suspension to 4.5 ml 70% ice-cold ethanol. After 2 h on ice, cells were pelleted and the ethanol was thoroughly decanted. The cell pellet was rinsed in 5 ml PBS, centrifuged, resuspended in 1 ml of PBS containing 0.1% Triton X-100, 0.2 mg/ml DNase-free RNase A, and 20 μg/ml propidium iodide (PI) and 2 μg/ml hoechst-A and incubated at 37° C. for 15 min before FACS analysis. Cells were analyzed using Becton Dickinson Cell Quest FACStation software (version 3.0.1) operating a Becton Dickinson FACSCalibur FACS machine. Gating was used to remove debris and doublets before collection. Results were quantitated using ModFit LT (1999; Topsham, Me.: Verity Software House, Inc.). […]

LC3-II = assay: Western blot of R-182 cytoplasmic preparations, LC3-II; details: R-182 cells, 5 μg/ml over 24 hr
From the text: (§1) FIG. 8. Molecular evidence of autophagic cell death in R-182 ovarian cancer cells induced by Cpd 1. […] B, Beclin 1 binds to Bcl-2. Immunoprecipitation study using mitochondrial preparations of cells pre-treated with Cpd 1 as stated in A, and subjected to beclin 1 immunoprecitation. Immunoprecipitated fractions were washed in PBS, subjected to SDS-PAGE, blotted and then probed with a mouse anti-Bcl-2 antibody. Actin and Topo-1 were used as loading control. C, Depolarized cells resulting from over-expression of Bax and Beclin 1 following administration of Cpd 1. Cells were treated with Cpd 1 as described in A, pelleted and washed in HBSS and the cell pellet resuspended in the reaction buffer for JC-1 (Biovision, Inc. MitoCapture™ K250-100). HBSS-washed cells were analysed by flow cytometry (λexcit=488 nm and (λemit=530 nm for green fluorescence (depolarized) or 590 nm for red fluorescence (polarized). 10,000 gated events were measured with a BD FACScalibur. Results were expressed as mean±standard deviation (n=3).
(§2) After treatment with Cpd 1, protein was extracted from cells and measured as previously described (Kamsteeg et al., 2003). For separation of the cytoplasmic and mitochondrial fractions, cell pellets were processed using the ApoAlert Cell Fractionation kit (Promega) according to the manufacturer's instructions. […]

Bax = assay: Western blot of R-182 mitochondrial extracts, Bax; details: R-182 cells, 5 μg/ml over 24 hr
From the text: as §1, §2

endonuclease G = assay: Western blot of R-182 nuclear preparations, endonuclease G; details: R-182 cells, 5 μg/ml over 24 hr
From the text: as §1, §2

Beclin 1 / Bcl-2 = assay: Beclin 1 immunoprecipitation probed with anti-Bcl-2; details: mitochondrial preparations of Cpd 1 treated cells
From the text: as §1
To measure membrane depolarization cells were treated with Cpd 1 as described above, pelleted and washed in HBSS and the cell pellet resuspended in the reaction buffer for JC-1 (Biovision, Inc. MitoCapture™ K250-100). HBSS-washed cell pellets were resuspended in 1 mL aliquots of the Mitocapture reagent buffer with 1 μL of JC-1 solution in DMSO (Biovision).

mTOR = assay: Western blot of R-182 lysates, mTOR
From the text: (§3) FIG. 10. The expression of upstream regulators of autophagy are also modulated in response to Cpd 1. […] B-actin was included as a loading control. B, Proposed mechanism of Cpd 1 induced autophagic cell death.
(§4) After treatment with Cpd 1, protein was extracted from cells and measured as previously described (Kamsteeg et al., 2003). For separation of the cytoplasmic and mitochondrial fractions, cell pellets were processed using the ApoAlert Cell Fractionation kit (Promega) according to the manufacturer's instructions. 20 μg protein was denatured in sample buffer (2.5% sodium dodecyl sulfate [SDS], 10% glycerol, 5% β-mercapto-ethanol, 0.15 M Tris, pH 6.8, and 0.01% bromophenol blue) and subjected to 12% SDS polyacrylamide gel electrophoresis (SDS-PAGE) as previously described (Kamsteeg et al., 2003). The following antibodies and concentrations were used: mouse anti-Bax (BD Biosciences, 1:500), rabbit anti-actin (Sigma, 1:10,000), rabbit anti-cytochrome c (BD Biosciences, 1:1,000), mouse anti-Cox-4 (BD Biosciences, 1:500), rabbit anti-beclin 1 (Santa Cruz Biotechnology, 1:600), mouse anti LC3 (Nanotools, 1:500). […] Proteins were observed using enhanced chemiluminescence (Pierce, Rockford, Ill.).

Akt = assay: Western blot of R-182 lysates, Akt; details: R-182 cells, 5 μg/ml
From the text: as §3, §4

COc1ccc([C@H]2c3ccc(O)c(C)c3OC[C@H]2c2ccc(O)cc2)cc1 (stereo in doubt) [Cpd 1, 3-(4-hydroxyphenyl)-4-(4-methoxyphenyl)-8-methylchroman-7-ol]
DNA fragmentation [1]: 95% | LC3-II expression (LC3-II): increased over time | expression of Bax in mitochondrial extracts (Bax): markedly upregulated over time | endonuclease G in nuclear preparations (endonuclease G): upregulated | Beclin and Bcl-2 co-precipitation (Beclin 1 / Bcl-2): co-precipitate at higher concentrations compared to control | mTOR expression (mTOR; R-182 cells, 5 μg/ml): reduced up to 120 minutes post exposure | phosphorylated mTOR levels in soluble extracts of cells (mTOR; cells treated in vitro, compared to control): decreased | Akt phosphorylation (p-Akt) (Akt): reduced up to 120 minutes post exposure | total Akt (t-Akt) expression (Akt): remained unchanged
